US20170273922A1, “UREA AND BIS-UREA BASED COMPOUNDS AND ANALOGUES THEREOF USEFUL IN THE TREATMENT OF ANDROGEN RECEPTOR MEDIATED DISEASES OR DISORDERS” (THE ROYAL INSTITUTION FOR THE ADVACEMENT OF LEARNING/MCGILL …, priority 2014, published 2017)

Legend:
[1] = MTT assay (cytotoxicity), DU145 cells; format: cell-based; settings: human, DU145 cells, Table 4.1
Outline: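 MTT viability readout after 72 h compound exposure (designated concentrations, DMSO vehicle control) in RPMI 1640/10% FBS. Seeding 6-7×10^3 cells/well, overnight attachment before dosing. Triplicate wells, ≥2 independent repeats.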

AR-v7 in LNCaP cells = target: T1, AR-v7 in LNCaP cells (Homo sapiens, UniProt P10275); experiment: PSA-luc reporter assay in LNCaP cells transiently transfected with pIRES-AR-v7; settings: 24 h
T1 sequence (P10275 1-644 isoform P10275-3): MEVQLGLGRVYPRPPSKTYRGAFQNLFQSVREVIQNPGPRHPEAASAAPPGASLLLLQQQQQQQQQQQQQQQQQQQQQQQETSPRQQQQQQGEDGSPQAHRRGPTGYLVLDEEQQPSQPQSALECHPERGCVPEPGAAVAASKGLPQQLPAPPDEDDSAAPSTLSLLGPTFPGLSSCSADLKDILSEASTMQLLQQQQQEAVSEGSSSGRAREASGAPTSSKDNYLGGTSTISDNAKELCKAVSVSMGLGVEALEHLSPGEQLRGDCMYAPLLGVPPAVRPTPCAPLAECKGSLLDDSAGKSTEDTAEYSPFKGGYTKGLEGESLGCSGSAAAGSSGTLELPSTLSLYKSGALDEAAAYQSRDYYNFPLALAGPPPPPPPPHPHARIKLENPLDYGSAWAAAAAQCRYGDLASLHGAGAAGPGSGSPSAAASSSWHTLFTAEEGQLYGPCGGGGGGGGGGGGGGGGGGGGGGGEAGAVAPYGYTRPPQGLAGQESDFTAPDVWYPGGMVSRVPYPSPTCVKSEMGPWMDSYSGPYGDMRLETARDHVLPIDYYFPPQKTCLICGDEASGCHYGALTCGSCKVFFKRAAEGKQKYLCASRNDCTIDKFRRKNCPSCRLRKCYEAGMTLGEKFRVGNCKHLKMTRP
Procedure: NT, LNCaP cells were transiently transfected with pIRES vector, PSA-luc and pRL-TK. […] Cells were then transiently transfected with PSA-Luc and pRL-TK and exposed to DMSO or compounds for 24 h, in triplicate.

[2] = MTT assay (cytotoxicity), H1975 cells; format: cell-based; settings: human, 72 h treatment, Table 6.1
Procedure: (§1) MTT assays: LNCaP, 22Rv1, Du145, H1975, A549, MB231 and MCF-7 cells are maintained in RPMI 1640 supplemented with 10% FBS. Cells were seeded at a density of 6-7×10^3 cells per well in 96-well plates. After overnight incubation, cells in fresh RPMI 1640 supplemented with 10% FBS were exposed to DMSO vehicle control or test compounds at designated concentrations for 72 h. Viable cells were evaluated by MTT assays. Experiments were performed in triplicate and repeated at least twice.

[3] = MTT assay (cytotoxicity), A549 cells; format: cell-based; settings: human, 72 h treatment, Table 6.1
Procedure: as §1

[4] = MTT assay (cytotoxicity), MB231 cells; format: cell-based; settings: human, 72 h treatment, Table 6.1
Procedure: as §1

[5] = MTT assay (cytotoxicity), MCF-7 cells; format: cell-based; settings: human, 72 h treatment, Table 6.1
Procedure: as §1

[6] = MTT assay (72 h), liver hepatocellular carcinoma cell line of Table 6.1; format: cell-based; settings: human, HepG2 cells (liver hepatocellular carcinoma), 72 h treatment, read-out: Cytotoxicity (IC50, μM) HepG2

Row | Structure (SMILES) | IC50 at 72 h [1] | melting point | activity in LNCaP cells with forced expression of AR-v7 (PSA-luc) (AR-v7 in LNCaP cells) | IC50 at 72 h [2] | IC50 at 72 h [3] | IC50 at 72 h [4] | IC50 at 72 h [5] | IC50 at 72 h [6]
1 | O=C(Nc1ccc(Br)nc1)Nc1cc(C(F)(F)F)cc(C(F)(F)F)c1 [Compound 566] | 1.7 µM | – | – | – | – | – | – | –
2 | O=C(N/C=C/c1cccc(C(F)(F)F)c1)Nc1ccncn1 [Compound 562] | – | 213 to 215 °C | remain active | – | – | – | – | –
3 | O=C(Nc1cccc(C(F)(F)F)c1)Nc1ccc(NC(=O)c2ccccc2F)c(C(F)(F)F)c1 [Compound 746] | – | – | remain active | 2.5 µM | 2.4 µM | 4.6 µM | 2.5 µM | 1.2 µM
